Data: patent US11981658B2, “Substituted aminopyridine compounds as EGFR inhibitors” (YUHAN CORPORATION, priority 2021, dated 2024)
Like-named read-outs stand apart in the source and are kept apart here.

Tests used:
EGFR L858R/C797S = EGFR L858R/C797S (Homo sapiens, UniProt P00533, C797S/L858R); experiment: Biochemical EGFR kinase inhibition assay (Lance Ultra TR-FRET), double mutant L858R/C797S
Summary of the method: (§1)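 In this biochemical assay, phosphorylation after a one-hour room-temperature reaction was detected with europium-labelled anti-phosphopeptide antibody at 2 nM final concentration.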

EGFR L858R/T790M/C797S = EGFR L858R/T790M/C797S (Homo sapiens, UniProt P00533, C797S/L858R/T790M); experiment: Biochemical EGFR kinase inhibition assay (Lance Ultra TR-FRET), triple mutant L858R/T790M/C797S
Sequence of EGFR L858R/T790M/C797S (P00533 25-1210 T790M/C797S/L858R): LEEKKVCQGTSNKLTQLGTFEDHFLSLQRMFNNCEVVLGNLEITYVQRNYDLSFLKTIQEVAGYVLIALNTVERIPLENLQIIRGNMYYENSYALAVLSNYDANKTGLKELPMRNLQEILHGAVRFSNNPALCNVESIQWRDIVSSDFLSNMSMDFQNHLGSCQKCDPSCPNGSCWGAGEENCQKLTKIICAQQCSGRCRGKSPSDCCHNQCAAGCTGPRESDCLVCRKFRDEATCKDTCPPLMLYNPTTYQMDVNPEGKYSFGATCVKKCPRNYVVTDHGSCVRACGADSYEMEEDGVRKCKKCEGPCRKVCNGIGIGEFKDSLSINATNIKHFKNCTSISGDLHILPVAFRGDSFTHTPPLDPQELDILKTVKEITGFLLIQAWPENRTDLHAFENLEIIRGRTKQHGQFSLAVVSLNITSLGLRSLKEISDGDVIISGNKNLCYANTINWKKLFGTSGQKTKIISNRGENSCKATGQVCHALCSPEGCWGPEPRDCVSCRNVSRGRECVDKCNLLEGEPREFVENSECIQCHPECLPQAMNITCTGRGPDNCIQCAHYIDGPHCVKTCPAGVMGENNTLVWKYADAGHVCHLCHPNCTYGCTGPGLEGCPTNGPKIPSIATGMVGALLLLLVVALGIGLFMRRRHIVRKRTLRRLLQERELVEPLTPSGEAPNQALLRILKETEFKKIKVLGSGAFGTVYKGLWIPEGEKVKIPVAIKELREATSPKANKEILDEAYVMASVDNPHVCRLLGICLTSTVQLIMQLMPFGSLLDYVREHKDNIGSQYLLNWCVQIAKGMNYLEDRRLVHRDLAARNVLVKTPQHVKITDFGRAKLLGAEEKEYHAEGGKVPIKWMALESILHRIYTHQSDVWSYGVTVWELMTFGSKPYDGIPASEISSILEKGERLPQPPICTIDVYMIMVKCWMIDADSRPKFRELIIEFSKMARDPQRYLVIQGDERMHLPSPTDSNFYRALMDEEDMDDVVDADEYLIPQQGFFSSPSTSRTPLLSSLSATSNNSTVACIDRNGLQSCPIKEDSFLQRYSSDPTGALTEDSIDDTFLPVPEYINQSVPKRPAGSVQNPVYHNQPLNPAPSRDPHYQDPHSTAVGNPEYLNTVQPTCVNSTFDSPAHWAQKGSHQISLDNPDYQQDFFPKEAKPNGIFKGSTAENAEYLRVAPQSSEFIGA
Summary of the method: as §1

EGFR wildtype (WT) = EGFR wildtype (WT) (Homo sapiens, UniProt P00533); experiment: Biochemical EGFR kinase inhibition assay (Lance Ultra TR-FRET), wildtype
Sequence of EGFR wildtype (WT) (P00533 25-1210): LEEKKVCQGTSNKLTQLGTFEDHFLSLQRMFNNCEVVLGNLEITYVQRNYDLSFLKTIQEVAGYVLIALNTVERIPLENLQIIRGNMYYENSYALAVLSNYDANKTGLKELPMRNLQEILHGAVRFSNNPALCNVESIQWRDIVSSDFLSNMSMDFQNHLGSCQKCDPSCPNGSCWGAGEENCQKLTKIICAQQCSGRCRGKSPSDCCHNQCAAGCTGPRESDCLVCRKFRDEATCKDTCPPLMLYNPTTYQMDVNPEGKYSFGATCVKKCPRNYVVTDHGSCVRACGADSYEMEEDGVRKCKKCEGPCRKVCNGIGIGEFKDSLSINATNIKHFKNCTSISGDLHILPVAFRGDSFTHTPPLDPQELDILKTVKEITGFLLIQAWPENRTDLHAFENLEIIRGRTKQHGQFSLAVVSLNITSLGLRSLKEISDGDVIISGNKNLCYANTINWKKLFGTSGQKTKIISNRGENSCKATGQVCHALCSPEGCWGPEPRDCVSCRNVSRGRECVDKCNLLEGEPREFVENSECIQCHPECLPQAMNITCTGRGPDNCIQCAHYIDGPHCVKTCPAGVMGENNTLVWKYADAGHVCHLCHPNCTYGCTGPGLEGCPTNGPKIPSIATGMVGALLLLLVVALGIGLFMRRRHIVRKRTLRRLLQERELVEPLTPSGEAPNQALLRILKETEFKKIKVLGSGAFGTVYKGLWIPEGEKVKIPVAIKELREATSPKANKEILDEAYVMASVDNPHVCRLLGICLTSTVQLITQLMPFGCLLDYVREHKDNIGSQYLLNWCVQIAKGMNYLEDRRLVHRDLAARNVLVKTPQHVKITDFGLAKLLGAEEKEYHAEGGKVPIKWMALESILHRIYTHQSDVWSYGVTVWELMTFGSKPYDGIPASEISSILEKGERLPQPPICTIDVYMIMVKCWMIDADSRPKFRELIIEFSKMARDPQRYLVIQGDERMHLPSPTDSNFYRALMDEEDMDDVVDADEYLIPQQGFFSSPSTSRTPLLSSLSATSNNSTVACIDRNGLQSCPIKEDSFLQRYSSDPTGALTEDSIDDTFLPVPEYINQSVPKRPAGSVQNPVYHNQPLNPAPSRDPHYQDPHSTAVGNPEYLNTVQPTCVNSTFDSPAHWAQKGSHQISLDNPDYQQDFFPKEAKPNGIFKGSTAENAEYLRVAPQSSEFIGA
Summary of the method: as §1

EGFR Del19/C797S = EGFR Del19/C797S (Homo sapiens, UniProt P00533, C797S/DEL746-750); experiment: Biochemical EGFR kinase inhibition assay (Lance Ultra TR-FRET), double mutant del19/C797S
Sequence of EGFR Del19/C797S (P00533 with tags, fused parts or gaps DEL746-750/C797S): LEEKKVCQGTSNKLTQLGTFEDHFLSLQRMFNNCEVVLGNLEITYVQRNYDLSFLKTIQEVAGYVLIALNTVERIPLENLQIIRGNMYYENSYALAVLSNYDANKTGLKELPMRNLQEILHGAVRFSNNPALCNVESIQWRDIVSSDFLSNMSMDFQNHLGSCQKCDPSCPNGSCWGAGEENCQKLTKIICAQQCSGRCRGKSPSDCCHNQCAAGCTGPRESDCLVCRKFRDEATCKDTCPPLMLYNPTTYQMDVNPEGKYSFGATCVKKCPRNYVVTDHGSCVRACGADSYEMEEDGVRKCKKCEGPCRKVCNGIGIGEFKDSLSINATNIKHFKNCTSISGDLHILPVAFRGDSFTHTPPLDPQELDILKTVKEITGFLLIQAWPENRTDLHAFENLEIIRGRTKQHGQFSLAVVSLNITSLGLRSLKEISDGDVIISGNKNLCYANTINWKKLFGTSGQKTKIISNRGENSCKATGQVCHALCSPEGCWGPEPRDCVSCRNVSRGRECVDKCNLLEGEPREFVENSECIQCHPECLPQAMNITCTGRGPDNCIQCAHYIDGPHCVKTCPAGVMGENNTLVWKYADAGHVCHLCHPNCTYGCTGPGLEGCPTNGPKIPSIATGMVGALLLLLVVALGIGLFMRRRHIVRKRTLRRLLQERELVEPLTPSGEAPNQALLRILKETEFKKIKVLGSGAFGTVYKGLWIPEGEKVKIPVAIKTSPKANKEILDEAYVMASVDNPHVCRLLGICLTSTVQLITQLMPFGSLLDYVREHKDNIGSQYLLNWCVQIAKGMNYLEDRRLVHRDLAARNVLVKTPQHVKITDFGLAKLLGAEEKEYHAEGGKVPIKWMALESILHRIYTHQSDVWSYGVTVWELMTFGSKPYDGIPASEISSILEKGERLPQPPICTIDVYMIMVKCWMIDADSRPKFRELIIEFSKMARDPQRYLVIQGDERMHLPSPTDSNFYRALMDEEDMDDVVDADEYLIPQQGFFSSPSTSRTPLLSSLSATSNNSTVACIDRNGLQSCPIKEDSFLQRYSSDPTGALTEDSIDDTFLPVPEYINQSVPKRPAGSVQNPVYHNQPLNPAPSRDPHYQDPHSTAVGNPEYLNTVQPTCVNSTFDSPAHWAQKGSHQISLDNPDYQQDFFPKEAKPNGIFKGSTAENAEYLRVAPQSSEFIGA
Summary of the method: as §1

EGFR Del19/T790M/C797S = EGFR Del19/T790M/C797S (Homo sapiens, UniProt P00533, C797S/DEL746-750/T790M); experiment: Biochemical EGFR kinase inhibition assay (Lance Ultra TR-FRET), triple mutant del19/T790M/C797S
Summary of the method: as §1

[1] = IC50 L858R/C797S (nM), 100 μM ATP
[2] = Km ATP, read-out: IC50 L858R/C797S (nM) Km ATP
[3] = IC50 L858R/T790M/C797S (nM), 100 μM ATP
[4] = Km ATP, read-out: IC50 L858R/T790M/C797S (nM) Km ATP
[5] = Km ATP, read-out: IC50 WT (nM) Km ATP
[6] = IC50 Del19/C797S (nM), 100 μM ATP
[7] = Km ATP, read-out: IC50 Del19/C797S (nM) Km ATP
[8] = IC50 Del19/T790M/C797S (nM), 100 μM ATP
[9] = Km ATP, read-out: IC50 Del19/T790M/C797S (nM) Km ATP

Sequence of EGFR L858R/C797S (P00533 25-1210 C797S/L858R): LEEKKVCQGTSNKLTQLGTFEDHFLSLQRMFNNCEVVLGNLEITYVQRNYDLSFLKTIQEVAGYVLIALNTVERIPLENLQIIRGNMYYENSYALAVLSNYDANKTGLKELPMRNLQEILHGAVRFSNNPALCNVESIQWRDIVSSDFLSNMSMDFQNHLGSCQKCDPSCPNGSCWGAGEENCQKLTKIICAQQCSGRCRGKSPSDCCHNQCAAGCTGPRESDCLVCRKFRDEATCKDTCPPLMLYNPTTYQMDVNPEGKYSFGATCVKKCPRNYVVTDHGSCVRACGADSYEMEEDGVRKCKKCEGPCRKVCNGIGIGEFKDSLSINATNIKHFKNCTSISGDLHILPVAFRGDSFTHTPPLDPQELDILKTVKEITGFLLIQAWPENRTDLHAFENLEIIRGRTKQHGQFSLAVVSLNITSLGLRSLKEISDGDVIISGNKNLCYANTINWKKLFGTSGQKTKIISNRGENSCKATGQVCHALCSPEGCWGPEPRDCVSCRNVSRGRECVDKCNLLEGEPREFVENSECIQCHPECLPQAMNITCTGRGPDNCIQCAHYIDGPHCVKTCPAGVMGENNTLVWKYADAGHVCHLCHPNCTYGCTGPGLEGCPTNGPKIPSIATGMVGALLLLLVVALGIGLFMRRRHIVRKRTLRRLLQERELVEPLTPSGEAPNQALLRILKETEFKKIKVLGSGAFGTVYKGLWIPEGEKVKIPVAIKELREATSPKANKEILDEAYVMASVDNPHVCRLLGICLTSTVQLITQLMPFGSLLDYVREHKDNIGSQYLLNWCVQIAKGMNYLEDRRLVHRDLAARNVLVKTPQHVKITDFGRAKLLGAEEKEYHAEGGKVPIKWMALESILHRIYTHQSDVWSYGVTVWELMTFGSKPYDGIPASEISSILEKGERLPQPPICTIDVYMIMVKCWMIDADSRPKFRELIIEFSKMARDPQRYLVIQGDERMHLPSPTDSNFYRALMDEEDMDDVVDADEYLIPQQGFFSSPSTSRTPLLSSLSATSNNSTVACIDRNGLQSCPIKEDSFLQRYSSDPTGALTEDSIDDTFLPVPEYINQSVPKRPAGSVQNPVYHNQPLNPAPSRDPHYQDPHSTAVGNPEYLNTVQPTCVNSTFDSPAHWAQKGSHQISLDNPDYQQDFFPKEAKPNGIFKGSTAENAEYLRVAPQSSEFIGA

| Structure (SMILES) | IC50 (EGFR L858R/C797S; [1]) [nM] | IC50 (EGFR L858R/C797S; [2]) [nM] | IC50 (EGFR L858R/T790M/C797S; [3]) [nM] | IC50 (EGFR L858R/T790M/C797S; [4]) [nM] | IC50 (EGFR wildtype (WT); IC50 WT (nM), 100 μM ATP) [nM] | IC50 (EGFR wildtype (WT); [5]) [nM] | IC50 (EGFR Del19/C797S; [6]) [nM] | IC50 (EGFR Del19/C797S; [7]) [nM] | IC50 (EGFR Del19/T790M/C797S; [8]) [nM] | IC50 (EGFR Del19/T790M/C797S; [9]) [nM] |
| --- | --- | --- | --- | --- | --- | --- | --- | --- | --- | --- |
| CN(C)CCNC1CCN(c2cc(Nc3ccnc(-c4cnn(S(=O)(=O)C5CC5)c4)n3)ncc2C#Cc2cnn(C3CCOCC3)c2)CC1 [Example 138, N^1-(1-(2-((2-(1-(Cyclopropylsulfonyl)-1H-pyrazol-4-yl)pyrimidin-4-yl)amino)-5-((1-(tetrahydro-2H-pyran-4-yl)-1H-pyrazol-4-yl)ethynyl)pyridin-4-yl)piperidin-4-yl)-N^2,N^2-dimethylethane-1,2-diamine] | 8.7 | 0.9 | 0.4 | 0.1 | 2940 | 7.8 | 1.3 | 1 | 0.3 | 0.3 |
| CC(=O)N1CCC(n2cc(C#Cc3cnc(Nc4ccnc(-c5cnn(S(=O)(=O)C6CC6)c5)n4)cc3N3CCC(NCCN(C)C)CC3)cn2)CC1 [Example 139, 1-(4-(4-((6-((2-(1-(Cyclopropylsulfonyl)-1H-pyrazol-4-yl)pyrimidin-4-yl)amino)-4-(4-((2-(dimethylamino)ethyl)amino)piperidin-1-yl)pyridin-3-yl)ethynyl)-1H-pyrazol-1-yl)piperidin-1-yl)ethan-1-one] | 8.2 | 0.9 | 0.4 | 0.1 | 1580 | 5.4 | 1.4 | 0.9 | 0.4 | 0.4 |
| CNC1CCN(c2cc(Nc3ccnc(-c4cnn(S(=O)(=O)C5CC5)c4)n3)ncc2C#Cc2ccn(C)n2)CC1 [Example 140, 2-(1-(Cyclopropylsulfonyl)-1H-pyrazol-4-yl)-N-(5-((1-methyl-1H-pyrazol-3-yl)ethynyl)-4-(4-(methylamino)piperidin-1-yl)pyridin-2-yl)pyrimidin-4-amine] | 887 | 23.2 | 6.4 | 1.3 | > 10000 | 622 | 176 | 114 | 1.8 | 1.3 |
| Cn1ccc(C#Cc2cnc(Nc3ccnc(-c4cnn(S(=O)(=O)C5CC5)c4)n3)cc2N2CCC(NCCF)CC2)n1 [Example 141, 2-(1-(Cyclopropylsulfonyl)-1H-pyrazol-4-yl)-N-(4-(4-((2-fluoroethyl)amino)piperidin-1-yl)-5-((1-methyl-1H-pyrazol-3-yl)ethynyl)pyridin-2-yl)pyrimidin-4-amine] | 1900 | 13.7 | 3.4 | 0.7 | > 10000 | 256 | 49.1 | 48.7 | 0.9 | 0.7 |
| CN(C)CCNC1CCN(c2cc(Nc3ccnc(-c4cnn(S(=O)(=O)C5CC5)c4)n3)ncc2C#Cc2ccn(C)n2)CC1 [Example 142, N^1-(1-(2-((2-(1-(Cyclopropylsulfonyl)-1H-pyrazol-4-yl)pyrimidin-4-yl)amino)-5-((1-methyl-1H-pyrazol-3-yl)ethynyl)pyridin-4-yl)piperidin-4-yl)-N^2,N^2-dimethylethane-1,2-diamine] | 176 | 3.9 | 0.9 | 0.2 | > 10000 | 31.3 | 8.4 | 5.9 | 0.4 | 0.4 |
| CN(C)CCNC1CCN(c2cc(Nc3ccnc(-c4cnn(S(=O)(=O)C5CC5)c4)n3)ncc2C#Cc2cnn(C(F)(F)F)c2)CC1 [Example 143, N^1-(1-(2-((2-(1-(Cyclopropylsulfonyl)-1H-pyrazol-4-yl)pyrimidin-4-yl)amino)-5-((1-(trifluoromethyl)-1H-pyrazol-4-yl)ethynyl)pyridin-4-yl)piperidin-4-yl)-N^2,N^2-dimethylethane-1,2-diamine] | 83.5 | 1.8 | 0.9 | 0.3 | > 10000 | 14.3 | 1.9 | 1.2 | 0.5 | 0.5 |
| CN(C)CCn1cc(C#Cc2cnc(Nc3ccnc(-c4cnn(S(=O)(=O)C5CC5)c4)n3)cc2N2CCC(NCCF)CC2)cn1 [Example 144, 2-(1-(Cyclopropylsulfonyl)-1H-pyrazol-4-yl)-N-(5-((1-(2-(dimethylamino)ethyl)-1H-pyrazol-4-yl)ethynyl)-4-(4-((2-fluoroethyl)amino)piperidin-1-yl)pyridin-2-yl)pyrimidin-4-amine] | 34.3 | 0.8 | 0.4 | 0.1 | > 10000 | 23.8 | 0.9 | 0.8 | 0.3 | 0.3 |
| CN(C)CCCn1cc(C#Cc2cnc(Nc3ccnc(-c4cnn(S(=O)(=O)C5CC5)c4)n3)cc2N2CCC(NCCF)CC2)cn1 [Example 145, 2-(1-(Cyclopropylsulfonyl)-1H-pyrazol-4-yl)-N-(5-((1-(3-(dimethylamino)propyl)-1H-pyrazol-4-yl)ethynyl)-4-(4-((2-fluoroethyl)amino)piperidin-1-yl)pyridin-2-yl)pyrimidin-4-amine] | 23.4 | 0.5 | 0.3 | 0.1 | 5550 | 14.2 | 0.7 | 0.6 | 0.2 | 0.2 |
| CNCC1(C)CCN(c2cc(Nc3ccnc(-c4cnn(S(=O)(=O)C5CC5)c4)n3)ncc2C#Cc2cnn(C)c2)CC1 [Example 146, 2-(1-(Cyclopropylsulfonyl)-1H-pyrazol-4-yl)-N-(5-((1-methyl-1H-pyrazol-4-yl)ethynyl)-4-(4-methyl-4-((methylamino)methyl)piperidin-1-yl)pyridin-2-yl)pyrimidin-4-amine] | 1.5 | 0.3 | 0.1 | 0.04 | 348 | 0.8 | 0.5 | 0.2 | 0.2 | 0.1 |
| CN1CCC(n2cc(C#Cc3cnc(Nc4ccnc(-c5cnn(S(=O)(=O)C6CC6)c5)n4)cc3N3CCC(C)(CO)CC3)cn2)CC1 [Example 147, (1-(2-((2-(1-(Cyclopropylsulfonyl)-1H-pyrazol-4-yl)pyrimidin-4-yl)amino)-5-((1-(1-methylpiperidin-4-yl)-1H-pyrazol-4-yl)ethynyl)pyridin-4-yl)-4-methylpiperidin-4-yl)methanol] | 0.7 | 0.2 | 0.2 | 0.1 | 43.3 | 0.4 | 0.4 | 0.2 | 0.4 | 0.2 |
| CN1CC(n2cc(C#Cc3cnc(Nc4ccnc(-c5cnn(S(=O)(=O)C6CC6)c5)n4)cc3N3CCC(C)(CO)CC3)cn2)C1 [Example 148, (1-(2-((2-(1-(Cyclopropylsulfonyl)-1H-pyrazol-4-yl)pyrimidin-4-yl)amino)-5-((1-(1-methylazetidin-3-yl)-1H-pyrazol-4-yl)ethynyl)pyridin-4-yl)-4-methylpiperidin-4-yl)methanol] | 0.6 | 0.2 | 0.2 | 0.1 | 47 | 0.4 | 0.3 | 0.2 | 0.3 | 0.2 |
